Key:
[1] = system: human osteosarcoma cells (MG-63); experiment: Assessment of cytotoxicity by SRB assay, MG-63 cells; assay type: cell-based; conditions: 0.01 μM to 100 μM, 72 h
Description: (§1) The human prostate cancer cells (PC3) and human osteosarcoma cells (MG-63) were obtained from Nawah Scientific Inc. (Mokatam, Cairo, Egypt) and cultured in DMEM (Dulbecco's modified eagle's medium), Gibco, USA, supplemented with fetal bovine serum […] at a concentration of 10% and 100 U/mL of penicillin and streptomycin (PS). The Cells were incubated at 37° C. in a humidified environment that contained 5% CO2.
(§2) Cells were seeded in 96-well plates as aliquots of 100 μL cell suspension and incubated in a complete media for 24 h. Afterward, cells were treated with 1,3-benzothiazol-2-yl-N′-[(3-phenylprop-2-enoyl)oxy]ethanimidamide at diverse concentrations ranging from 0.01 μM to 100 μM for 72 h. Then, cells were fixed at 4° C. for one hour with 150 μL of 10% trichloroacetic acid (TCA). […] Then, 150 μL of Tris pH 10.5 (10 mM) was added, and the absorbance was measured at 540 nm using a BMG LABTECH®—FLUOstar Omega microplate reader (Ortenberg, Germany). Half maximal inhibitory concentrations (IC50) values were calculated for each experiment using GraphPad Prism 6 software. […] The inhibition was calculated using the following equation: Inhibition %=100−Average Viability
(§3) The anticancer activity of 1,3-benzothiazol-2-yl-N′-[(3-phenylprop-2-enoyl)oxy]ethanimidamide was assessed against highly aggressive androgen-independent metastatic human prostate cancer cells (PC3) and osteosarcoma (MG-63) cells.

[2] = system: human prostate cancer cells (PC3); experiment: Assessment of cytotoxicity by SRB assay, PC3 cells; assay type: cell-based; conditions: 0.01 μM to 100 μM, 72 h
Description: as §1, §2, §3

In the case of `N/C(Cc1nc2ccccc2s1)=N\OC(=O)/C=C/c1ccccc1` [1,3-benzothiazol-2-yl-N′-[(3-phenylprop-2-enoyl)oxy]ethanimidamide], the “antiproliferative activity against osteosarcoma (MG-63) cells” value [1] is reported as “excellent antiproliferative activities”, the melting point is reported as 157 to 159 °C and the “antiproliferative activity against prostate cancer cells (PC3)” value [2] is reported as “excellent antiproliferative activities”.
